Values of other authors in patent US20230233646A1, “METHOD OF TREATMENT OF CONGENITAL MYASTHENIC SYNDROME USING DOK7 GENE OR POLYPEPTIDE” (priority 2020, published 2023).

System: peripheral cholinesterase enzyme

CN(C)C(=O)Oc1ccc[n+](C)c1 [Pyridostigmine]
fraction of peripheral cholinesterase enzyme carbamylated: about 30%
